# Assay results as given in patent publication US20040180817A1, “Neuropathologies associated with expression of tnf-$g (a)” (priority 2001, published 2004).
# Entries after “also recorded” stand apart in the source; their conditions may differ.
# How the values were obtained:
# [1] = system: rrTNF-α-induced reduction in striatal rCBV; assay: Effect of ET receptor antagonist on rrTNF-α-induced acute rCBV reduction (MRI); assay type: in vivo, rat; conditions: 5 mg/kg i.v. 10 min prior to 1.5 μg intrastriatal rrTNF-α; 1.5 h
# Method: (§1) Adult male Wistar rats (Harlan-Olac, UK) were anaesthetised with fentanyl/fluanisone and midazolam (0.68 ml/kg of each). Using a 50 μm-tipped glass pipette, 1 μl rat recombinant TNF-α (NIBSC, Potters Bar, UK) solution was injected stereotaxically 1 mm anterior and 3 mm lateral to Bregma, at a depth of 4 mm into the left striatum. Animals were injected with either 0.3 μg/μl or 1.5 μg/μl of TNF-A, each in 0.1% BSA in low-endotoxin saline, or with vehicle solution only. Animals were positioned in the MRI probe (3.4 cm i.d. Alderman-Grant resonator) using a bite-bar. During MRI, anaesthesia was maintained with 0.8-1.2% halothane in 50% N2O/50% O2, ECG was monitored non-invasively and body temperature was maintained at […]. All procedures were approved by the United Kingdom Home Office.
# (§2) Magnetic resonance images were acquired using a 300 MHz Varian Inova spectrometer (Varian, Palo Alto, Calif.). […] Diffusion gradients were applied separately along three orthogonal axes and apparent diffusion coefficient (ADC) “trace” maps were calculated^40. […]
# (§3) Regions of Interest (ROI) encompassing the striatum were defined on T2-weighted images in each hemisphere, and applied to all images or calculated data maps for quantitation. For the rCBV maps and T2-weighted images the data are expressed as a ratio of injected/non-injected striatal values. […]
# [2] = system: rat brain striatum (tissue water diffusion); assay: Diffusion weighted MRI: apparent diffusion coefficient (ADC) of tissue water in striatum; assay type: in vivo; conditions: 24 h
# Method: as §1, §2, §3
# [3] = system: blood-cerebrospinal fluid barrier and blood-brain barrier; assay: Contrast-enhanced T1-weighted MRI of B-CSF-B / BBB permeability; assay type: in vivo, rat
# Method: as §1
# Magnetic resonance images were acquired using a 300 MHz Varian Inova spectrometer (Varian, Palo Alto, Calif.). Anatomical images were acquired using a T2-weighted sequence (repetition time, TR, 3 sec; echo time, TE, 80 msec). […] Diffusion gradients were applied separately along three orthogonal axes and apparent diffusion coefficient (ADC) “trace” maps were calculated^40. […]
smiles,measurement,setting,value
COc1cccc(Oc2c(NS(=O)(=O)c3ccc(C(C)(C)C)cc3)ncnc2OCCO)c1 [Ro 46-2005],effect on rrTNF-α-induced reduction in striatal rCBV,[1],No significant differences; also recorded: eliminated
same,"Apparent Diffusion Coefficient, Right (control) striatum",[2]; Ro 46-2005 i.v. pre-treatment + 1.5 μg rrTNF-α intrastriatal (left),7.23 ± 0.17 ×10^−4 mm^2/sec
same,effect of pre-treatment on TNF-α-induced reduction in ADC,[2]; pre-treatment before 1.5 μg rrTNF-α,not affected
same,BBB breakdown: increase in signal intensity of injected striatum,"[3]; Ro 46-2005 pre-treatment + 1.5 g TNF-α (so in the source), 24 h",10.3±2.7%
same,effect of pre-treatment on TNF-α-induced B-CSF-B breakdown,"[3]; pre-treatment before TNF-α, 1.5 h",did not significantly alter
